The numbers were not newly measured in US7863316B2, “Extended release formulation of Levetiracetam” (UCB Pharma S.A., priority 2005, dated 2011), which cites them from elsewhere.

Assay in data set [1]: not given
This is another data set of the same source.

For data set [2] the following is noted: three different pH media, immediate release tablet.

As to `CC[C@@H](C(N)=O)N1CCCC1=O` [Levetiracetam, (−)-(S)-α-ethyl-2-oxo-1-pyrrolidine acetamide], the “time to steady state kinetics” value (after multiple twice daily dosing) was 2 days. Also, for the setting “in vivo”, the “bound to plasma proteins” value is given as “less than 10%”, the renal clearance was 0.6 mL/min/kg, the total body clearance was 0.9 mL/min/kg and the volume of distribution was 0.6 L/kg. Besides, under “with food”, the “decrease of cmax by food” value is on record as 20% and the “delay of Tmax by food” value was 1.5 h. The solubility in acetonitrile in data set [1] (acetonitrile) is 5.7 g/100 mL. In data set [1] (chloroform), the solubility in chloroform is 65.3 g/100 mL. In data set [1] (ethanol), the solubility in ethanol is 16.5 g/100 mL. Further, the solubility in methanol in data set [1] (methanol) is on record as 53.6 g/100 mL. In addition, the solubility in n-hexane entry in data set [1] (n-hexane) is recorded as “practically insoluble”. The aqueous solubility in data set [1] (water) was 104 g/100 mL. Further, the “tablet amount released in 15 minutes” value in data set [2] is recorded as above 85%.
